# Measured values from article PMC3691018 (Bioorganic & medicinal chemistry letters, 2013).
# pIC50: −log10 of the molar value.
# Biological target: Bacillus anthracis DNA replicative helicase (Bacillus anthracis, UniProt A0A0J1HKT7)
# Experiment: biochemical
# Type: biochemical
SMILES,Activity vs B. anthracis helicase (in words),pIC50
COc1cccc(C(=O)Nc2nc3ccc4nc(NC(C)C)sc4c3s2)c1 [Compound 51],significantly reduced activity,
COc1cccc(C(=O)Nc2nc3ccc4nc(NCC(C)C)sc4c3s2)c1 [Compound 52],modest inhibition,
COc1cccc(C(=O)Nc2nc3ccc4nc(NC5CCCCC5)sc4c3s2)c1 [Compound 53],significantly reduced activity,
COc1cccc(C(=O)Nc2nc3ccc4nc(NCc5ccccc5)sc4c3s2)c1 [Compound 54],significantly reduced activity,
COc1cc(CNc2nc3ccc4nc(SC)sc4c3s2)cc(OC)c1OC [Compound 64],lost activities,< 4.00
COc1cc(/C=N/c2nc3ccc4nc(SC)sc4c3s2)cc(OC)c1OC [Compound 65],lost activities,< 4.00

# Test system: HeLa
# Experiment: not given
# Type: cell-based
row,SMILES,Selectivity index (SI = CC50/IC50)
1,CNc1nc2ccc3nc(NC(=O)c4cc(OC)c(OC)c(OC)c4)sc3c2s1 [Compound 59],greater than 500
